Values of other authors in patent publication US20150045422A1 (priority 2005, published 2015).

Columns and labels:
[1] = system: Herpes Simplex Virus Type 2 (HSV2)

| Molecule | PSR Potency in Human Cells (IC50) HSV2 [1] [µg/mL] | PSR Potency in Human Cells (IC50) HeLa (HeLa (uterine)) [µg/mL] | PSR Potency in Human Cells (IC50) HEK (HEK (kidney)) [µg/mL] | PSR Potency in Human Cells (IC50) HL (HL (lymphocyte)) [µg/mL] | PSR Potency in Human Cells (IC50) HEp2 (HEp2 (epidermoid)) [µg/mL] | concentrations that did not decrease cell viability (HEp-2 cells) |
| --- | --- | --- | --- | --- | --- | --- |
| CC(=O)O[C@@H]1[C@@H](O)[C@H]2O[C@@H]3C=C(C)C(=O)[C@@H](O)[C@]3(CO)[C@]1(C)[C@]21CO1 [FusX, Fusarenon-X] | 0.026 | 0.1 | 1 | 0.3 |  |  |
| CC1=C[C@H]2O[C@@H]3[C@H](O)[C@@H](O)[C@](C)([C@@]2(CO)[C@H](O)C1=O)[C@]31CO1 [NIV, Nivalenol] | 0.05 | 0.3 | 1 | 0.3 | 0.225 |  |
| CC(=O)OC[C@]12C[C@H](O)C(C)=C[C@H]1O[C@@H]1[C@H](O)[C@@H](OC(C)=O)[C@@]2(C)[C@]12CO2 [NEOS, neosolaniol] | 0.052 | 0.1 | 0.06 | 0.05 |  | below 200 ng/ml |
| Crotocin |  | 0.5 | 0.6 | 2 | 0.25 |  |
| CC1=C[C@H]2O[C@@H]3[C@H](O)C[C@](C)([C@@]2(CO)[C@H](O)C1=O)[C@]31CO1 [DON, Deoxynivalenol] | 0.094 | 1 | 3 | 0.5 | 0.25 |  |
